Results on 8 compounds are retold here after patent US7045653B2, “Pharmaceuticals” (Pfizer, Inc., priority 2003, dated 2006).

pIC50: −log10 of the molar value.

Test [1] has as its target T1, NEP (EC.3.4.24.11) from human kidney (Homo sapiens, UniProt P08473).
T1 construct: determined using NEP (EC.3.4.24.11) from human kidney; from tissue; host or cells: human kidney
Nature of the test: IC50 against NEP. The format is biochemical. On the procedure:
IC50 values of the compounds of the invention against NEP and ACE were determined using methods described in published patent application EP1097719-A1, paragraphs [0368] to [0376]. The IC50 values presented below were determined using NEP (EC.3.4.24.11) from human kidney.

The test system of test [2] is patients with essential hypertension. The settings on record: 24 black patients with essential hypertension; cited from earlier work.
The test system of a further test is hypertensive patients. The note with it: added to the ACE inhibitor lisinopril; 37 hypertensive patients; cited from earlier work.
The next test concerns hypertensive rats. The settings on record: cited from earlier work.

T1 sequence (P08473 whole entry): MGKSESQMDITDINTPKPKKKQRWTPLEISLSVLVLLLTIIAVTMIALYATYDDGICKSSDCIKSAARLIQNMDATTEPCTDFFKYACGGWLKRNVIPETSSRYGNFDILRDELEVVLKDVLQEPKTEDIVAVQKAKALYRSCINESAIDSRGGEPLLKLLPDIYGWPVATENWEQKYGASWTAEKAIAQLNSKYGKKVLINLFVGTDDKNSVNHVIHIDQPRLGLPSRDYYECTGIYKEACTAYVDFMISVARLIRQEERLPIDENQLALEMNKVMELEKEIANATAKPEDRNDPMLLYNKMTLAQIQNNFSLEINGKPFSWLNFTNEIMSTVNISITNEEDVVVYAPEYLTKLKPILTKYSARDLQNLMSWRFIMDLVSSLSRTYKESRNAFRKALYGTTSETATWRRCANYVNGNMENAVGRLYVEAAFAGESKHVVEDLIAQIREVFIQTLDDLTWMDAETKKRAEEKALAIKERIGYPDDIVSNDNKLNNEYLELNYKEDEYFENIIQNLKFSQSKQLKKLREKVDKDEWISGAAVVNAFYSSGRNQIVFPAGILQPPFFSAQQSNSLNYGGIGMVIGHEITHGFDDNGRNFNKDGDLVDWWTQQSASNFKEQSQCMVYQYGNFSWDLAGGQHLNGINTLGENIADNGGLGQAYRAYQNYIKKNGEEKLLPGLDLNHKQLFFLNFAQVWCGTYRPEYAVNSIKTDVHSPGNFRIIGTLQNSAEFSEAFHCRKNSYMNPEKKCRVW

Consider `CCC[C@H](CC1(C(=O)N[C@@H](CCOc2ccc(Cl)cc2)CC(=O)O)CCCC1)C(=O)O` [Example 41, (3S)-3-[({1-[(2R)-2-Carboxypentyl]cyclopentyl}carbonyl)amino]-5-(4-chlorophenoxy)pentanoic Acid], for which the pIC50 in test [1] is 8.20. On the same count and under the same terms, the value for `COCC[C@H](CC1(C(=O)N[C@@H](CCCc2ccc(Cl)cc2)CC(=O)O)CCCC1)C(=O)O` [Example 53, (3S)-3-[({1-[(2S)-2-carboxy-4-methoxybutyl]cyclopentyl}carbonyl)amino]-6-(4-chlorophenyl)hexanoic Acid] was 9.15.

For the compound `CC1(C)OCC(COC(=O)C(Cc2ccccc2)N[C@@H](Cc2ccccc2)C(=O)NCCC(=O)O)O1` (some centres unmarked) [SCH34826], in test [2], the supine blood pressure result is given as “significantly lowered supine blood pressure”.

Regarding `COCC[C@H](CC1(C(=O)N[C@@H](COCc2ccc(Cl)cc2)CC(=O)O)CCCC1)C(=O)O` [Example 16, (2S)-2-[(1-{[((1R)-2-Carboxy-1-{[(4-chlorobenzyl)oxy]methyl}ethyl)amino]-carbonyl}cyclopentyl)methyl]-4-methoxybutanoic Acid], the pIC50 in test [1] is 8.09.

`COCCOC[C@H](CC1(C(=O)N[C@H]2CC[C@@H](C(=O)O)CC2)CCCC1)C(=O)Oc1ccc2c(c1)CCC2` [candoxatril]: the “supine and erect blood pressure” value in the test on hypertensive patients was “marked reduction in both supine and erect blood pressure”.

In the case of `COCC[C@H](CC1(C(=O)N[C@@H](CCCc2ccc(OC)cc2)CC(=O)O)CCCC1)C(=O)O` [Example 54, (3S)-3-[({1-[(2S)-2-carboxy-4-methoxybutyl]cyclopentyl}carbonyl)amino]-6-(4-methoxyphenyl)hexanoic Acid], the pIC50 in test [1] was 8.33. In turn, `COCC[C@H](CC1(C(=O)N[C@@H](CCOc2ccc(Cl)cc2)CC(=O)O)CCCC1)C(=O)O` [Example 48, (3S)-3-[({1-[(2S)-2-Carboxy-4-methoxybutyl]cyclopentyl}carbonyl)amino]-5-(4-chlorophenoxy)pentanoic Acid] showed a pIC50 in test [1] of 8.62. Turning to `COCCOC[C@H](CC1(C(=O)N[C@H]2CC[C@@H](C(=O)O)CC2)CCCC1)C(=O)O` [candoxatrilat], the systolic blood pressure entry with hypertensive rats was “lowers systolic blood pressure”.

A word on the pIC50: it is the negative decadic logarithm of the IC50, by convention in mol/L.
